Source: patent US20140045847A1, “CRYSTALLINE FORM OF A SALT OF A MORPHOLINO SULFONYL INDOLE DERIVATIVE AND A PROCESS FOR ITS PREPARATION” (PIRAMAL ENTERPRISES LIMITED, priority 2011, published 2014)

Tests used:
pAkt = assay: IGF-1R autophosphorylation assay (Western blot), pAkt; assay type: cell-based, human; conditions: 1 h treatment, IGF-1 50 ng/mL stimulation
Experimental: (§1) Cells were grown and maintained in a medium containing 10% FBS. Cells grown as subconfluent monolayer, were subjected to serum starvation by replacing the respective culture medium with plain medium (containing no serum) and incubated for about 16 h at 37° C. in 5% CO2 incubator. Serum starved cells were treated with compound I at different concentrations for 1 h at 37° C. in 5% CO2 incubator and stimulated with IGF-1 (50 ng/mL) for the last 5 minutes of treatment with Compound I. After stimulation cells were washed twice with cold 1×PBS, pH 7.2 and cell lysates were prepared using CelLytic™ M cell lysis reagent (Sigma) containing protease and phosphatase inhibitors. Estimation of the total protein content in each cell lysate was carried out using Bradford reagent. Equal amount of protein from each lysate was subjected to Sodium Dodecyl Sulphate-Polyacrylamide Gel Electrophoresis (SDS-PAGE) followed by Western blotting protocol using specific antibody to pIGF-1R, IGF-1Rβ, pAkt, Akt, Pp70S6, p70S6, Pp44/42, p44/42 and loading control, β-actin. Imaging was done with BIO-RAD Image-Lab Software. The band density was then estimated using the software Image J. From the band densities of the various proteins at different concentrations of Compound I, the IC50 concentrations for various proteins were calculated, and are enumerated in Table 3.

[1] = Stability of the solid form under stress conditions; assay type: physicochemical
Pp70S6 = assay: IGF-1R autophosphorylation assay (Western blot), Pp70S6; assay type: cell-based, human; conditions: 1 h treatment, IGF-1 50 ng/mL stimulation
Experimental: as §1

pIGF-1R = molecular target: T1, pIGF-1R (Homo sapiens, UniProt P08069); assay: IGF-1R autophosphorylation assay (Western blot), pIGF-1R; assay type: cell-based; conditions: 1 h treatment, IGF-1 50 ng/mL stimulation
T1 construct: endogenous in cells
T1 sequence (P08069 31-1367): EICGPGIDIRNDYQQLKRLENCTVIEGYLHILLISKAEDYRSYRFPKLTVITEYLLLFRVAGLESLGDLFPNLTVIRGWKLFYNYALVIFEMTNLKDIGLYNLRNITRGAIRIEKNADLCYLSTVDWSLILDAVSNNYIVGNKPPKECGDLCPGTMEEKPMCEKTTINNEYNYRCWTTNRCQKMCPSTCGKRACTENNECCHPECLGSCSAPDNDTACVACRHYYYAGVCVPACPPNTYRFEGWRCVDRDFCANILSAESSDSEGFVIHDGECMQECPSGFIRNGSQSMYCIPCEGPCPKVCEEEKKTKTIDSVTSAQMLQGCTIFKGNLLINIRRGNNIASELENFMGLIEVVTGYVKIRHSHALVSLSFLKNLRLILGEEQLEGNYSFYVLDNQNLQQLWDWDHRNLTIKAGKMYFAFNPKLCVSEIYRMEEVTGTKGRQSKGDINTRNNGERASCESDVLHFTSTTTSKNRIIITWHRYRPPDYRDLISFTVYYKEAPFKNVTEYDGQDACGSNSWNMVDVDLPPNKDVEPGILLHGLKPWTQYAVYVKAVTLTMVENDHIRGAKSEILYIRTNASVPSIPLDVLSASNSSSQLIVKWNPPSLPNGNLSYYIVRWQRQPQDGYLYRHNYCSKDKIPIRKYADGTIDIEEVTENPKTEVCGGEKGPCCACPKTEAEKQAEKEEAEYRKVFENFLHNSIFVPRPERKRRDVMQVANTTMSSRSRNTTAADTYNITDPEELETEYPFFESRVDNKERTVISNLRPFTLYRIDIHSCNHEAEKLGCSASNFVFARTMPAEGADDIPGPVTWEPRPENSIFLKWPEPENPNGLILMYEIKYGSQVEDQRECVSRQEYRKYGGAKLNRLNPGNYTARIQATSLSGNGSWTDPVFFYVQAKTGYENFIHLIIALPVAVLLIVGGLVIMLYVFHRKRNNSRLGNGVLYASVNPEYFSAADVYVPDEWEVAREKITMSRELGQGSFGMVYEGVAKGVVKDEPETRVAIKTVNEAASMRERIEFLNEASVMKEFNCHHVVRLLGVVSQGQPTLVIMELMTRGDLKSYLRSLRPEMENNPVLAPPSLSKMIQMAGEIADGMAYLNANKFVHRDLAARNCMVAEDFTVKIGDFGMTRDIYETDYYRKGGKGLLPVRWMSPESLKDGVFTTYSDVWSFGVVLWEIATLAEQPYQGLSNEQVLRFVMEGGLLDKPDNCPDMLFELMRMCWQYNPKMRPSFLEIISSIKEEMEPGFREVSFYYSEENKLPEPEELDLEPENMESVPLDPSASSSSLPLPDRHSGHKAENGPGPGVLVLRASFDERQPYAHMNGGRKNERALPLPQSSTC
Experimental: as §1

human tumor cell lines = conditions: mesenchymal, epithelial and hematopoietic tumor cell lines; Carboni et al. 2009; cited from earlier work
A673 cells = assay: Anti-proliferative assay (CellTiter-Glo), A673; assay type: cell-based; conditions: Homo sapiens; A673, 72 h, 100 ng/mL IGF-1 without FCS
Experimental: (§2) The cancer cell lines were seeded in triplicate (at density, from 3000-5000 cells/well depending on cell type) with 10% FCS in 180 μL of culture medium in tissue culture grade 96 well plates and allowed to recover for 24 h in humidified 5% CO2 incubator at 37±1° C. […] Compound I in crystalline form was used at concentration range of 0.1, 1, 3 and 10 μM and the plates were incubated for 72 h in humidified 5% CO2 incubator at 37±1° C. Control wells were treated with vehicle (DMSO). At the end of the incubation periods, the plates were assayed by the CellTiter-Glo® Luminescent Cell Viability assay protocol. Percent cytoxicity was calculated at the various drug concentrations. Graph for cytotoxicity vs. concentration of Compound I was plotted, and the IC50 values were determined
(§3) The CellTiter-Glo® Luminescent Cell Viability Assay is a homogeneous method to determine the number of viable cells in culture based on quantitation of the ATP present, which signals the presence of metabolically active cells. The amount of ATP is directly proportional to the number of cells present in culture
(§4) • 1. […] The luminescence is recorded using the POLARstar optima plate reader […] Values are IC50 in nM for different cell lines are provided for the crystalline form of Compound I in Table 4.

MCF7 cells = assay: Anti-proliferative assay (CellTiter-Glo), MCF7; assay type: cell-based; conditions: Homo sapiens; MCF7, 72 h, 100 ng/mL IGF-1 without FCS
Experimental: as §2, §3, §4

SK-ES cells = assay: Anti-proliferative assay (CellTiter-Glo), SK-ES; assay type: cell-based; conditions: Homo sapiens, 72 h, 100 ng/mL IGF-1 without FCS
Experimental: as §2, §3, §4

RD-ES cells = assay: Anti-proliferative assay (CellTiter-Glo), RD-ES; assay type: cell-based; conditions: Homo sapiens, 72 h, 100 ng/mL IGF-1 without FCS
Experimental: as §2, §3, §4

RD cells = assay: Anti-proliferative assay (CellTiter-Glo), RD; assay type: cell-based; conditions: Homo sapiens, 72 h, 100 ng/mL IGF-1 without FCS
Experimental: as §2, §3, §4

HCT116 cells = assay: Anti-proliferative assay (CellTiter-Glo), HCT116; assay type: cell-based; conditions: Homo sapiens, HCT-116; HCT116, 72 h, 100 ng/mL IGF-1 without FCS
Experimental: as §2, §3, §4

[2] = molecular target: T2, intracellular kinase domain of human IGF-1R (GST fusion protein) (Homo sapiens, UniProt P08069); assay: In vitro IGF-1R kinase assay (HTRF); assay type: biochemical; conditions: ATP 20 μM, IGFRK 0.25 nM, read-out: IC50 IGF-1R enzyme
T2 construct: intracellular kinase domain of human IGF-1R and expressed as GST fusion proteins; GST; made in house
T2 sequence (P08069 999-1274 limits assumed): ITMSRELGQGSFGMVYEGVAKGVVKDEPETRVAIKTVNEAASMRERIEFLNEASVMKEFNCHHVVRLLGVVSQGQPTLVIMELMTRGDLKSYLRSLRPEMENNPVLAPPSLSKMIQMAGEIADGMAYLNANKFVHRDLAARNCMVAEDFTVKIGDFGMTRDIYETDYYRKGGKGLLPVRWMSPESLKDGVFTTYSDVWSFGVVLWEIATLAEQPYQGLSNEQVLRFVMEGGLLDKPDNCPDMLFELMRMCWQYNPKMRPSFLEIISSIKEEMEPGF
Experimental: The in vitro kinase assays using IGF-1R kinase GST fusion proteins were conducted using a homogeneous time-resolved fluorescence (HTRF) format. Kinase reactions were carried out in a 384-well plate format in a final volume of 20 μL. The standard enzyme reaction buffer consisted of 50 mM Tris HCL (pH: 7.4), 1 mM EGTA, 10 mM MgCl2, 2 mM DTT, 0.01% Tween-20, IGF-1R/IR kinase enzyme, poly GT peptide substrate (Perkin Elmer [Ulight Glu-Tyr (4:1)]n) and ATP [concentration equivalent to Kmapp]. […] Europium cryptate—labeled antiphosphotyrosine antibody PY20 (5 μL) was added (final concentration of 2 nM) and the mixture was allowed to equilibrate for 1 hour at 23° C. followed by reading the plate in an Envision plate reader. […] The IC50 values for Compound I in both, the crystalline form and the amorphous form were determined by a four-parameter sigmoidal curve fit (Sigma plot or Graph pad) as represented in Table 2.
IGFRK enzyme used for the assay was intracellular kinase domain of human IGF-1R and expressed as GST fusion proteins using the baculovirus expression system and purified using glutathione—Sepharose column. […]

[3] = Homo sapiens, A673, 1 h, A673 cells
[4] = MCF7 cells, listed as Crystalline form

Molecule CCOC(=O)N1CCC(Nc2cc(Cl)cc3c(S(=O)(=O)N4CCO[C@H](COc5ccccc5)C4)c(C(N)=O)[nH]c23)CC1 [Compound I (amorphous form), (S)-ethyl 4-(2-carbamoyl-5-chloro-3-(2-(phenoxymethyl)morpholinosulfonyl)-1H-indol-7-ylamino)piperidine-1-carboxylate methane sulfonate] has an IC50 (pAkt; Colo205 cells, listed as Amorphous form) of 620 nM, an IC50 (pAkt; [3]) of 260 nM and an IC50 (pAkt; MCF7 cells, listed as Amorphous form) of 380 nM. For the same molecule, the “stability under stress conditions” value ([1]; listed as amorphous form of Compound I) was “unstable under stress conditions”, the IC50 (Pp70S6; [3]) was 450 nM and the IC50 (Pp70S6; Homo sapiens, MCF7, 1 h, MCF7 cells) was 680 nM. The IC50 (pIGF-1R; A673 cells) was less than 10 nM, the IC50 (pIGF-1R; Colo205 cells) was 400 nM and the IC50 (pIGF-1R; MCF7 cells) was 15 nM.

For C[C@@]1(C(=O)Nc2ccc(F)nc2)CCCN1c1nc(Nc2cc(C3CC3)n[nH]2)c2cccn2n1 [BMS-754807], the “inhibition of growth of human tumor types in vitro” value (human tumor cell lines) is given as “effectively inhibits the growth”.

For CCOC(=O)N1CCC(Nc2cc(Cl)cc3c(S(=O)(=O)N4CCO[C@H](COc5ccccc5)C4)c(C(N)=O)[nH]c23)CC1 [Compound I (crystalline form), (S)-ethyl 4-(2-carbamoyl-5-chloro-3-(2-(phenoxymethyl)morpholinosulfonyl)-1H-indol-7-ylamino)piperidine-1-carboxylate methane sulfonate], the IC50 (A673 cells) was 1800 nM, the IC50 (pAkt; A673 cells) was 220 nM and the IC50 (pAkt; Colo205 cells, listed as Crystalline form) was 23 nM. It also gave an IC50 (pAkt; [4]) of 50 nM, an IC50 (MCF7 cells) of 160 nM and an IC50 (SK-ES cells) of 450 nM. For the same molecule, the IC50 (RD-ES cells) was 250 nM, the IC50 (RD cells) was 1400 nM and the “stability under stress conditions” value ([1]; listed as crystalline form of Compound I) was “stable with reproducible pharmacological activity even under stress conditions”. The IC50 (HCT116 cells) was 900 nM, the IC50 [2] was 22 nM and the IC50 (Pp70S6; [4]) was 460 nM. It also gave an IC50 (pIGF-1R; A673 cells) of 30 nM and an IC50 (pIGF-1R; Colo205 cells) of 46 nM.
